# Reference: publication PMC10298512, “Synthesis and Anticancer Evaluation of Novel 7-Aza-Coumarine-3-Carboxamides” (International Journal of Molecular Sciences, 2023)
# Columns and labels:
# Format in all cases: cell-based, human
# HuTu 80 cells [1] = assay: Mitochondrial membrane potential by flow cytometry (JC-10); settings: HuTu 80, IC50/2 and IC50 concentrations, 24-h incubation
# From the text: Violation of the functions of the mitochondria of the cell is one of the most common signs of apoptosis inherent in eukaryotic organisms. With mitochondrial dysfunction, pro-apoptotic factors are released into the cytoplasm—cytochrome c, AIF, Smac/DIABLO, endonuclease G, as well as proforms of caspases 2, 3, and 9—inducing the cascade. The release of these protein factors can be associated both with the rupture of mitochondrial membranes and with the activation of specific channels in the outer mitochondrial membrane. This usually leads to a change in the mitochondrial membrane potential (ΔΨm) due to a change in the permeability of the inner mitochondrial membrane for H+ protons. […] The principle of operation of these dyes is determined by their ability to spontaneously penetrate through the cytoplasmic membranes of cells, as well as the outer and inner membranes of mitochondria and accumulate in areas with a high concentration of protons, that is, under the inner mitochondrial membrane. This effect is accompanied by a change in the intensity of cell fluorescence, which is recorded by cytofluorimetry. […] JC-10 accumulates in the mitochondrial matrix and forms aggregates (J-aggregates) with red fluorescence in normal cells with a high mitochondrial membrane potential. […]
# Chang liver = assay: MTT cytotoxicity test, normal Chang liver cells; settings: Homo sapiens, Chang liver, 24 h incubation, tested at 1–100 µM, three independent experiments, read-out: IC50 (µM) Normal Cell Lines Chang Liver
# HuTu 80 cells [2] = assay: Detection of intracellular ROS by flow cytometry (CellROX Deep Red); settings: for Fluorescence intensity (CellROX Deep Red, ROS production): 24 h
# From the text: Increased generation of reactive oxygen species (ROS) by the test compounds can also characterize the development of apoptosis along the mitochondrial pathway. Mitochondria are both a potential source and target of ROS. An increase in ROS production leads to the disruption of mitochondrial functions and, subsequently, to irreversible damage and cell death. In this regard, the effect of lead compound 7r at IC50/2 and IC50 concentrations on ROS production in HuTu 80 cells was investigated using a flow cytometry assay and the CellROX® Deep Red flow cytometry kit. […] This indicates an increase in ROS production in the presence of the test compound.
# (§1) Cell Culture. HuTu 80 cells at 1 × 10^6 cells/well in a final volume of 2 mL were seeded into six-well plates.
# ROS generation was investigated using a flow cytometry assay and CellROX® Deep Red flow cytometry kit. For this, […] cells were harvested at 2000 rpm for 5 min and then washed twice with ice-cold PBS, followed by resuspension in 0.1 mL of medium without FBS, to which we added 0.2 μL of CellROX® Deep Red (Thermo Fisher Scientific, Waltham, MA, USA) and incubated at 37 °C for 30 min After three times washing the cells and suspending them in PBS, the production of ROS in the cells was immediately monitored using flow cytometer Guava easy Cyte, MERCK).
# M-HeLa = assay: MTT cytotoxicity test, M-HeLa cells; settings: Homo sapiens, M-HeLa, 24 h incubation, tested at 1–100 µM, three independent experiments, read-out: IC50 (µM) Cancer Cell Lines M-HeLa
# HuTu 80 cells [3] = assay: Cell apoptosis analysis by flow cytometry (annexin V-Alexa Fluor 647 / propidium iodide); settings: HuTu 80, IC50/2 and IC50 concentrations, 24-h incubation
# From the text: Induction of apoptosis is one of the most important mechanisms of anticancer activity. The apoptosis-inducing effect in HuTu 80 cells was studied by flow cytometry using sets of annexin V binding to the apoptosis marker phosphatidylserine. On the surface of the membranes of healthy cells, phosphatidylserine is contained in a minimal amount. Therefore, the interaction of annexin V with these cells is negligible. During apoptosis, phosphatidylserine molecules appear on the cell surface and can interact with the protein. This interaction leads to an increase in the fluorescence intensity of apoptotic cells, which is recorded by a flow cytometer. The apoptosis-inducing effect was evaluated using the example of the leader compound 7r at IC50/2 and IC50 concentrations on the HuTu 80 cell line (Figure 1).
# as §1
# Cell Apoptosis Analysis. […] The cells were harvested at 2000 rpm for 5 min and then washed twice with ice-cold PBS, followed by resuspension in binding buffer. Next, the samples were incubated with 5 μL of annexin V- Alexa Fluor 647 (Sigma-Aldrich, St. Louis, MO, USA) and 5 μL of propidium iodide (Sigma-Aldrich, St. Louis, MO, USA) for 15 min at room temperature in the dark. Finally, the cells were analyzed using flow cytometry (Guava easy Cyte, MERCK, Darmstadt, Germany) within 1 h. […]
# HuTu 80 = assay: MTT cytotoxicity test, HuTu 80 cells
smiles,measurement,setting,value
"Cc1ncc(CCl)c2cc(C(=O)Nc3ccc(S(=O)(=O)c4ccc(NC(=O)c5cc6c(CCl)cnc(C)c6oc5=O)cc4)cc3)c(=O)oc12 [7r, N,N′-(Sulfonylbis(4,1-phenylene))bis(5-(chloromethyl)-8-methyl-2-oxo-2H-pyrano[2,3-c]pyridine-3-carboxamide)]",change in mitochondrial membrane potential (in words),HuTu 80 cells [1],decrease in the mitochondrial membrane potential
same,IC50,Chang liver,78 ± 5.9 µM
same,"Fluorescence intensity (CellROX Deep Red, ROS production)","HuTu 80 cells [2]; HuTu 80, 2.8 µM (IC50/2)",1400
same,"Fluorescence intensity (CellROX Deep Red, ROS production)","HuTu 80 cells [2]; HuTu 80, 5.5 µM (IC50)",1700
same,ROS production vs control (in words),"HuTu 80 cells [2]; HuTu 80, IC50/2 and IC50 concentrations",significant increase
same,IC50,M-HeLa,64.5 ± 4.5 µM
same,apoptosis-inducing effect (in words),HuTu 80 cells [3],apoptotic effects were registered
same,IC50,"HuTu 80; Homo sapiens, HuTu80, MTT test, 24 h incubation, tested at 1–100 µM, three independent experiments, read-out: IC50 (µM) Cancer Cell Lines HuTu 80",5.5 ± 0.4 µM
same,"selectivity index, SI = IC50(Chang liver)/IC50(HuTu 80)",HuTu 80; normal Chang liver vs HuTu 80,14
